Source: patent publication US9346781B2, “Therapeutic compounds” (UNIVERSITY OF IOWA RESEARCH FOUNDATION, priority 2012, dated 2016)

Key:
[1] = tested on: HT29; assay: MTT cell viability assay, HT29; format: cell-based, human
Experimental: (§1) FIG. 1 Illustrates results generated when HT29, A375SM, MEL624, SK-MEL-2, H1299, HCT116, Raji, HL60 and MDA-MB231 cells were treated with log-scale serial diluted concentrations of truncated superstolide A (Compound 3) from 1 to 3000 nM for 72 hours and the effect of truncated superstolide A on cell death was measured by performing a MTT assay.
(§2) Cell Viability Assay: The antiproliferative effect of compound 3 was determined by performing 3-(4,5-dimethylthiazol-2-yl)-2,5-diphenyltetrazolim (MTT) assay. Briefly, cancer cells at varying concentrations—2,000 cells/well (A375SM, MEL624 and SK-MEL-2,) and 5,000 cells/well (HT29, H1299, and HCT116, Raji, and HL-60)—were seeded onto a 96-well plate in triplicates. […] At the end of the 72 hours period, cells were treated with the MTT reagent (Sigma-Aldrich, M O) and the antiproliferative effect of compound 3 was measured as previously described (Zhou Y, Achanta G, Pelicano H, Gandhi V, Plunkett W, and Huang P (2002). Molecular Pharmacology 61:222-229). […]
(§3) The antiproliferative effect of compound 3 was evaluated in two human colon carcinoma cell lines (HT29, HCT116), three malignant melanoma cell lines (A375SM, MEL624, and SK-MEL-2), one human non-small cell lung carcinoma cell line (H1299), one lymphoma cell line (Raji), one leukemia cell line (HL-60), and one malignant breast cancer cell line (MDA-MB231) using MTT assay. […]

[2] = tested on: A375SM; assay: MTT cell viability assay, A375SM; format: cell-based; details: Homo sapiens, A375-SM, 72 hours, read-out: IC50 (nM), antiproliferative effect
Experimental: as §1, §2, §3

[3] = tested on: SK-MEL-2; assay: MTT cell viability assay, SK-MEL-2; format: cell-based; details: Homo sapiens, 72 hours, read-out: IC50 (nM), antiproliferative effect
Experimental: as §1, §2, §3

[4] = tested on: NCI-60 cell assay; assay: NCI-60 cell assay; format: cell-based; details: leukemia, non-small cell lung cancer, colon cancer, CNS cancer, melanoma, ovarian cancer, renal cancer, prostate cancer, breast cancer
[5] = tested on: H1299; assay: MTT cell viability assay, H1299; format: cell-based; details: Homo sapiens, NCI-H1299, 72 hours, read-out: IC50 (nM), antiproliferative effect
Experimental: as §1, §2, §3

[6] = tested on: MEL624; assay: MTT cell viability assay, MEL624; format: cell-based; details: 72 hours, read-out: IC50 (nM), antiproliferative effect
Experimental: as §1, §2, §3

[7] = tested on: HCT116; assay: MTT cell viability assay, HCT116; format: cell-based; details: Homo sapiens, HCT-116, 72 hours, read-out: IC50 (nM), antiproliferative effect
Experimental: as §1, §2, §3

[8] = tested on: MDA-MB231; assay: MTT cell viability assay, MDA-MB231; format: cell-based; details: Homo sapiens, MDA-MB-231, 72 hours, read-out: IC50 (nM), antiproliferative effect
Experimental: as §1, §2, §3

[9] = tested on: the other eight tested cell lines; assay: MTT cell viability assay, other eight tested cell lines (summary); format: cell-based; details: Homo sapiens; the other eight tested cell lines (all but HT-29); read-out: IC50 in suppressing tumor cell proliferation
Experimental: Cell Viability Assay: The antiproliferative effect of compound 3 was determined by performing 3-(4,5-dimethylthiazol-2-yl)-2,5-diphenyltetrazolim (MTT) assay. Briefly, cancer cells at varying concentrations—2,000 cells/well (A375SM, MEL624 and SK-MEL-2,) and 5,000 cells/well (HT29, H1299, and HCT116, Raji, and HL-60)—were seeded onto a 96-well plate in triplicates. Following an overnight incubation, the cells were treated with log-scale serially increasing concentrations of compound 3 for 72 hours at 37° C. At the end of the 72 hours period, cells were treated with the MTT reagent (Sigma-Aldrich, M O) and the antiproliferative effect of compound 3 was measured as previously described (Zhou Y, Achanta G, Pelicano H, Gandhi V, Plunkett W, and Huang P (2002). Molecular Pharmacology 61:222-229). The IC50 values correspond to a concentration of compound 3 that inhibits cell viability by 50%.
The antiproliferative effect of compound 3 was evaluated in two human colon carcinoma cell lines (HT29, HCT116), three malignant melanoma cell lines (A375SM, MEL624, and SK-MEL-2), one human non-small cell lung carcinoma cell line (H1299), one lymphoma cell line (Raji), one leukemia cell line (HL-60), and one malignant breast cancer cell line (MDA-MB231) using MTT assay. The data (MTT curves and IC50 tables) are shown in FIG. 1 and in the following Table 1.

[10] = tested on: Raji; assay: MTT cell viability assay, Raji; format: cell-based; details: Homo sapiens, 72 hours, read-out: IC50 (nM), antiproliferative effect
Experimental: as §1, §2, §3

[11] = tested on: HL60; assay: MTT cell viability assay, HL60; format: cell-based; details: Homo sapiens, HL-60, 72 hours, read-out: IC50 (nM), antiproliferative effect
Experimental: as §1, §2, §3

[12] = tested on: HT-29 cell; details: read-out: IC50, antiproliferative effect; cited from earlier work

Compound	potency in suppressing tumor cell proliferation relative to superstolide A ([1]; HT-29 cell, versus parent natural product superstolide A)	IC50 ([1]; Homo sapiens, HT-29, HT29, 72 hours, MTT assay, read-out: IC50 (nM), antiproliferative effect)	IC50 [2]	IC50 [3]	activity in NCI-60 cell assay [4]	IC50 [5]	IC50 [6]	IC50 [7]	IC50 [8]	IC50 [9]	IC50 [10]	IC50 [11]	IC50 [12]
CC(=O)N[C@H](C)[C@@H](O)[C@@H](C)[C@@H]1OC(=O)/C=C/C=C(C)\C=C\[C@]2(C)CCC=C[C@@H]2/C=C(C)/C=C/[C@H]1C [Compound 3]	about seven times more potent	7.54 nM	36.5 nM	63.8 nM	active	56.8 nM	53.1 nM	52.7 nM	18 nM	10 to 70 nM	76.7 nM	11.8 nM	–
superstolide A	–	–	–	–	–	–	–	–	–	–	–	–	64 nM
